Measured values from patent US20090047246A1, “NOVEL INHIBITORS OF HEPATITIS C VIRUS REPLICATION” (InterMune, Inc., priority 2007, published 2009).

Molecular target: T1, HCV NS3 helicase (Hepatitis C virus genotype 1b, UniProt P26663)
T1 construct: full-length NS3 (1-631), purified at Array BioPharma
Assay: HCV Helicase Prompt FRET Assay (Example A)
Type: biochemical
Details: HCV NS3 helicase; tables do not say whether Example A or Example B assay; read-out: IC50 Activity
Protocol: Test compounds were diluted to 2.5 mM by adding 6 uL of a 10 mM solution of the compound to 18 uL of DMSO in a 384-well Costar polypropylene plate. Serial dilutions (2.5×) were performed in the plate using DMSO as the diluent. 1 ul of solution was transferred from each well to a new 384-well Costar polypropylene plate.
A 2× mixture was prepared containing 100 nM helicase substrate, 500 nM helicase capture strand (CS), and 600 μM ATP by diluting stock solutions with assay buffer consisting of 25 mM MOPS, pH 7.0, and 1.5 mM MgCl2, 0.005% (v/v) Triton X-100. Stock helicase substrate was prepared by annealing a FAM-labeled oligonucleotide to a BHQ-1 labeled oligonucleotide, which were both custom synthesized and HPLC-purified at Biosearch Technologies. The FAM-labeled and BHQ-labeled oligonucleotide had the following sequences:
The helicase capture strand was custom synthesized and purified at Integrated DNA Technologies. The helicase capture strand had the following sequence:
The ATP solution was prepared in MilliQ water, pH adjusted to approximately 7 with NaOH. ATP powder was obtained from Sigma (A-7699). The concentration was determined via A260 (ext. coeff=15,400 M^−1cm^−1).
11.5 μL of assay buffer was added to all wells of the plate containing luL of test compound. 5 μL of the Compound/assay buffer mixture was added to a black polystyrene 384-well Proxiplate. A 4× Enzyme solution was prepared by diluting enzyme stock containing full-length NS3 (1-631), purified at Array BioPharma, with assay buffer. 5 μL of the 4× Enzyme solution was added to the Proxiplate and incubated for 5 minutes (for control wells lacking enzyme, assay buffer was used instead). 10 μL of 2× substrate/CS/ATP mixture was then added to all wells of Proxiplate. The final assay conditions included 50 nM Substrate, 250 nM Capture Strand, 300 μM ATP, 5 or 6 nM Enzyme, and 2% (v/v) DMSO. The reaction proceeded for 70 cycles (˜30 min.) on an Envision at room temperature. The plate was read using the Envision (top mirror=FITC; Excitation filter=FITC 485; Emission filter=FITC 535). The fluorescence intensity was recorded for a total of 30 minutes. The initial rates of the reactions was calculated and used to calculate IC50 values. The IC50 curve fitting was performed using either a 4-parameter or 5-parameter logistic equation.

T1 sequence (P26663 1027-1657): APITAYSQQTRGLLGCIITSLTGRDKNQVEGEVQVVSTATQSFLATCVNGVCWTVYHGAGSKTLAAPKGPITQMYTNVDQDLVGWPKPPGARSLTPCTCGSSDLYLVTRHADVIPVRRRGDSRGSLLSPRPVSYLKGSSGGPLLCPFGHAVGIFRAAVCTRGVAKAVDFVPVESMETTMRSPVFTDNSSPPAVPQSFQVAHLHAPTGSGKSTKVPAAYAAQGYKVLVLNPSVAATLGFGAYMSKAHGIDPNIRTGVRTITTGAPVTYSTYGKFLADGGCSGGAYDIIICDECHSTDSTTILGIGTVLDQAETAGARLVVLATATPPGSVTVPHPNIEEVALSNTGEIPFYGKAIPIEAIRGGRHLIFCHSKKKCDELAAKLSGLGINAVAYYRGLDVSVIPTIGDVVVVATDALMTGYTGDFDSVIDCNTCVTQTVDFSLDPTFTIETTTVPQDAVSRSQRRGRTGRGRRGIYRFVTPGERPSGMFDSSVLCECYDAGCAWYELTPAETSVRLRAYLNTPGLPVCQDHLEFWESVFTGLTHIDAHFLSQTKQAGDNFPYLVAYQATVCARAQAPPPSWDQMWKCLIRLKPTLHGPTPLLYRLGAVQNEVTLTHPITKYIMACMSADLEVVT

IC50 [µM]	Structure (SMILES)
10 to 50	COc1cccc(-c2cccc(C(=O)c3[nH]c4ccccc4c3CC(=O)O)c2)c1 [Example 229]
< 10	O=C(O)Cc1c(C(=O)c2cccc(-c3cccc(Cl)c3Cl)c2)[nH]c2ccccc12 [Example 230]
< 10	O=C(O)Cc1c(C(=O)c2cccc(-c3cc(Cl)cc(Cl)c3)c2)[nH]c2ccccc12 [Example 231]
10 to 50	O=C(O)Cc1c(C(=O)c2cccc(-c3cccc(Cl)c3)c2)[nH]c2ccccc12 [Example 232]
< 10	Cc1cc(C)cc(-c2cccc(C(=O)c3[nH]c4ccccc4c3CC(=O)O)c2)c1 [Example 233]
10 to 50	O=C(O)Cc1c(C(=O)c2cccc(-c3ccccc3Cl)c2)[nH]c2ccccc12 [Example 234]
10 to 50	O=C(O)Cc1c(C(=O)c2cccc(-c3ccc(CO)cc3)c2)[nH]c2ccccc12 [Example 235]
10 to 50	COc1ccc(-c2cccc(C(=O)c3[nH]c4ccccc4c3CC(=O)O)c2)cc1 [Example 236]
10 to 50	O=C(O)Cc1c(C(=O)c2cccc(-c3cccc(OC(F)(F)F)c3)c2)[nH]c2ccccc12 [Example 237]
10 to 50	O=C(O)Cc1c(C(=O)c2cccc(-c3ccnc(Cl)c3)c2)[nH]c2ccccc12 [Example 238]
< 10	O=C(O)Cc1c(C(=O)c2cccc(-c3ccc(Cl)cc3Cl)c2)[nH]c2ccccc12 [Example 239]
< 10	O=C(O)Cc1c(C(=O)c2cccc(-c3ccc(Cl)c(Cl)c3)c2)[nH]c2ccccc12 [Example 240]
10 to 50	O=C(O)Cc1c(C(=O)c2ccc(-c3ccncc3)cc2)[nH]c2ccccc12 [Example 247]
10 to 50	O=C(O)Cc1c(C(=O)Cc2ccc(-c3ccccc3)cc2)[nH]c2ccccc12 [Example 249]
10 to 50	O=C(O)Cc1c(C(=O)c2ccc(-c3ccc(Cl)cc3)cc2)[nH]c2ccccc12 [Example 252]
10 to 50	O=C(O)Cc1c(C(=O)c2ccc(-c3cccc(Cl)c3)cc2)[nH]c2ccccc12 [Example 253]
< 10	O=C(O)Cc1c(C(=O)c2ccc(-c3ccccc3Cl)cc2)[nH]c2ccccc12 [Example 254]

IC50 [µM]	Structure (SMILES)
10 to 50	O=C(O)Cc1c(C(=O)c2ccc(-c3ccccc3Cl)cc2)[nH]c2ccccc12 [Example 255]
10 to 50	Cc1ccc(-c2ccc(C(=O)c3[nH]c4ccccc4c3CC(=O)O)cc2)cc1 [Example 256]
< 10	O=C(O)Cc1c(C(=O)c2ccc(-c3ccc(Cl)c(Cl)c3)cc2)[nH]c2ccccc12 [Example 257]
< 10	Cc1cc(-c2ccc(C(=O)c3[nH]c4ccccc4c3CC(=O)O)cc2)ccc1Cl [Example 261]
10 to 50	Cc1ccc(-c2ccc(C(=O)c3[nH]c4ccccc4c3CC(=O)O)cc2)cc1C [Example 262]
10 to 50	NC(=O)c1cccc(-c2ccc(C(=O)c3[nH]c4ccccc4c3CC(=O)O)cc2)c1 [Example 263]
10 to 50	O=C(O)Cc1c(C(=O)c2ccc(-c3cccc(CO)c3)cc2)[nH]c2ccccc12 [Example 264]
10 to 50	NC(=O)c1ccc(-c2ccc(C(=O)c3[nH]c4ccccc4c3CC(=O)O)cc2)cc1 [Example 265]
10 to 50	O=C(O)Cc1c(C(=O)c2ccc(-c3ccc(C(=O)O)cc3)cc2)[nH]c2ccccc12 [Example 266]
< 10	Cc1ccc(-c2ccc(C(=O)c3[nH]c4ccccc4c3CC(=O)O)cc2)cc1Cl [Example 267]
< 10	CC(C)(C)OC(=O)NCc1cccc(-c2ccc(C(=O)c3[nH]c4ccccc4c3CC(=O)O)cc2)c1 [Example 268]
10 to 50	O=C(O)Cc1c(C(=O)c2ccc(-c3ccccc3Br)cc2)[nH]c2ccccc12 [Example 270]
10 to 50	CSc1ccccc1-c1ccc(C(=O)c2[nH]c3ccccc3c2CC(=O)O)cc1 [Example 271]
< 10	O=C(O)Cc1c(C(=O)c2ccc(-c3ccc(Cl)cc3Cl)cc2)[nH]c2ccccc12 [Example 272]
10 to 50	O=C(O)Cc1c(C(=O)c2ccc(-c3c(Cl)cccc3Cl)cc2)[nH]c2ccccc12 [Example 273]
< 10	O=C(O)Cc1c(C(=O)c2ccc(-c3cccc(Cl)c3Cl)cc2)[nH]c2ccccc12 [Example 274]
10 to 50	CC(=O)Nc1cccc(-c2ccc(Cc3[nH]c4ccccc4c3CC(=O)O)cc2)c1 [Example 293]

Further lines, the compound ahead of its results:

Structure (SMILES)	IC50 [µM]
O=C(O)Cc1c(C(=O)c2cccc(-c3cccc(Cl)c3Cl)c2)oc2ccccc12 [Example 241]	< 10
O=C(O)Cc1c(C(=O)c2cccc(-c3ccc(Cl)cc3Cl)c2)oc2ccccc12 [Example 242]	< 10
O=C(O)Cc1c(C(=O)c2cccc(-c3ccc(Cl)c(Cl)c3)c2)oc2ccccc12 [Example 243]	< 10
O=C(O)Cc1c(C(=O)c2cccc(-c3cc(Cl)cc(Cl)c3)c2)oc2ccccc12 [Example 244]	< 10
CC(C)c1cccc(-c2cccc(C(=O)c3oc4ccccc4c3CC(=O)O)c2)c1 [Example 245]	< 10
O=C(O)Cc1c(C(=O)c2ccc(Br)cc2)n(Cc2ccccc2)c2ccccc12 [Example 248]	10 to 50
Cn1c(C(=O)Cc2ccc(-c3ccccc3)cc2)c(CC(=O)O)c2ccccc21 [Example 250]	10 to 50
O=C(O)Cc1c(C(=O)C(Cc2ccccc2)c2ccc(-c3ccccc3)cc2)[nH]c2ccccc12 (stereo not drawn) [Example 251]	< 10
O=C(O)Cc1c(C(=O)Cc2ccccc2)n(Cc2ccccc2)c2ccccc12 [Example 258]	10 to 50
O=C(O)Cc1c(C(=O)Cc2ccc(F)cc2)n(Cc2ccccc2)c2ccccc12 [Example 259]	10 to 50
O=C(O)Cc1c(C(=O)Cc2ccccc2Br)n(Cc2ccccc2)c2ccccc12 [Example 260]	< 10
O=C(O)Cc1c(C(=O)c2ccc(-c3ccccc3C(F)(F)F)cc2)[nH]c2ccccc12 [Example 269]	10 to 50
O=C(O)Cc1c(C(=O)c2ccc(-c3ccccc3Cl)cc2)[nH]c2ccc(Br)cc12 [Example 275]	< 10
Cn1c(Cc2ccc(-c3ccccc3)cc2)c(CC(=O)O)c2ccccc21 [Example 276]	10 to 50
O=C(O)Cc1c(Cc2ccc(-c3ccccc3)cc2)n(Cc2ccccc2)c2ccccc12 [Example 277]	10 to 50
O=C(O)Cc1c(Cc2ccc(-c3ccccc3)cc2)n(CC2CC2)c2ccccc12 [Example 278]	< 10
O=C(O)Cc1c(Cc2ccc(-c3ccccc3Cl)cc2)[nH]c2ccccc12 [Example 279]	< 10
O=C(O)Cc1c(Cc2ccc(-c3ccc(Cl)c(Cl)c3)cc2)[nH]c2ccccc12 [Example 280]	< 10

Structure (SMILES)	IC50 [µM]
Cc1cc(-c2ccc(Cc3[nH]c4ccccc4c3CC(=O)O)cc2)ccc1Cl [Example 281]	< 10
Cc1ccc(-c2ccc(Cc3[nH]c4ccccc4c3CC(=O)O)cc2)cc1C [Example 282]	< 10
Cc1ccccc1-c1ccc(Cc2[nH]c3ccccc3c2CC(=O)O)cc1 [Example 283]	10 to 50
COc1ccccc1-c1ccc(Cc2[nH]c3ccccc3c2CC(=O)O)cc1 [Example 284]	10 to 50
O=C(O)Cc1c(Cc2ccc(-c3ccccc3C(F)(F)F)cc2)[nH]c2ccccc12 [Example 285]	< 10
O=C(O)Cc1c(Cc2ccc(-c3ccccc3F)cc2)[nH]c2ccccc12 [Example 286]	10 to 50
O=C(O)Cc1c(Cc2ccc(-c3ccccc3Br)cc2)[nH]c2ccccc12 [Example 287]	< 10
CSc1ccccc1-c1ccc(Cc2[nH]c3ccccc3c2CC(=O)O)cc1 [Example 288]	< 10
O=C(O)Cc1c(Cc2ccc(-c3ccc(Cl)cc3Cl)cc2)[nH]c2ccccc12 [Example 289]	< 10
O=C(O)Cc1c(Cc2ccc(-c3cccc(Cl)c3Cl)cc2)[nH]c2ccccc12 [Example 290]	< 10
Cc1ccc(-c2ccc(Cc3[nH]c4ccccc4c3CC(=O)O)cc2)cc1Cl [Example 291]	< 10
CC(=O)Nc1ccc(-c2ccc(Cc3[nH]c4ccccc4c3CC(=O)O)cc2)cc1 [Example 292]	10 to 50
O=C(O)Cc1c(Cc2ccc(-c3ccccc3Cl)cc2)[nH]c2ccc(Br)cc12 [Example 294]	< 10
O=C(O)Cc1c(Cc2ccc(-c3ccccc3)cc2)[nH]c2ccccc12 [Example 295]	< 10
O=C(O)Cc1c(Cc2cccc(-c3cccc(C(F)(F)F)c3)c2)[nH]c2ccccc12 [Example 296]	< 10
CSc1cccc(-c2cccc(Cc3[nH]c4ccccc4c3CC(=O)O)c2)c1 [Example 297]	< 10
COc1cccc(-c2cccc(Cc3[nH]c4ccccc4c3CC(=O)O)c2)c1 [Example 298]	< 10
